Earlier results on one molecule are cited in patent US20040087564A1, “Delivery composition and method” (priority 2002, published 2004).

For `C[C@]12CC[C@H]3[C@@H](CCC4=CC(=O)CC[C@@]43C)[C@@H]1CC[C@@H]2O` [testosterone], the “true testosterone disposition half-life” value (in rabbits) is about 15 min. In addition, the testosterone clearance (male rabbit, Bourget et al., Steroids 43:225-233 (1984)) is 29.2 mL/min/kg.
